PMC12261228 (ACS Pharmacology & Translational Science, 2025)
Like-named read-outs stand apart in the source and are kept apart here.

How the values were obtained:
HCT116p53–/– = experiment: MTS cytotoxicity assay, 72 h; format: cell-based; settings: read-out: IC50 HCT116p53–/–
K562 = experiment: MTS cytotoxicity assay, 72 h; format: cell-based; settings: Homo sapiens, K562, 72 h, read-out: IC50 K562
HCT116 = experiment: MTS cytotoxicity assay, 72 h; format: cell-based; settings: Homo sapiens, HCT-116, 72 h, read-out: IC50 HCT116
CEM-DNR = experiment: MTS cytotoxicity assay, 72 h; format: cell-based; settings: Homo sapiens, read-out: IC50 CEM-DNR
K562-TAX = experiment: MTS cytotoxicity assay, 72 h; format: cell-based; settings: read-out: IC50 K562-TAX
U2OS = experiment: MTS cytotoxicity assay, 72 h; format: cell-based, human; settings: Homo sapiens, U2OS, 72 h
CCRF-CEM lymphoblasts = experiment: FACS analysis of cell cycle, apoptosis, mitosis and polyploidy; settings: for Mitosis: phospho-Histone (Ser10); for Apoptosis: sub-G0/G1 DNA content, % of positive cells
MRC-5 = experiment: MTS cytotoxicity assay, 72 h; format: cell-based; settings: Homo sapiens, MRC5, 72 h, read-out: IC50 MRC-5
HUVEC = experiment: MTS cytotoxicity assay, 72 h; format: cell-based; settings: Homo sapiens, 3-day incubation, mean ± SD
CCRF-CEM = experiment: MTS cytotoxicity assay, 72 h; format: cell-based
BJ = experiment: MTS cytotoxicity assay, 72 h; format: cell-based; settings: Homo sapiens, read-out: IC50 BJ
A549 = experiment: MTS cytotoxicity assay, 72 h; format: cell-based; settings: Homo sapiens, Fig. S22
Experimental: Cell suspensions were prepared and diluted according to the particular cell type and the expected target cell density (500 – 4,000 cells/well). The cells (30 μL/well) were seeded to 384-well clear Corning plates by MultiDrop Combi (Thermo Fisher Scientific, USA). After 24 h the cells were treated with tested compounds as well as with vehicle (DMSO) and high controls (2.67 μM of Actinomycin D and 100 μM Mitomycin C) using contact-free acoustic liquid handler ECHO 555 (Labcyte, USA). Compounds were analyzed at a concentration range from 0.012 μM to 50 μM. Treated cells were incubated at 37 °C in a 5% CO2 atmosphere of a humidified incubator for 72 h. At the end of the incubation period, aliquots of the MTS (Promega) solution prepared according to manufacturer's instructions were added to cells (https://worldwide.promega.com/resources/protocols/technical-bulletins/0/celltiter-96-aqueous-nonradioactive-cell-proliferation-assay-protocol/). After 1 – 4 h of the incubation period, the optical density (OD) at 490 nm was measured on a multimode plate reader EnVision (PerkinElmer, USA). The experiments were performed in technical duplicates and at least three biological replicates. […] The assay quality was monitored by determining the Z′-factor for each 384-well plate. The resistance index (RI), representing the reduction in compound activity on resistant cell lines, was calculated as RI = (IC50 of resistant cell lines, CEM-DNR, K562-TAX)/(IC50 of nonresistant counterparts, CCRF-CEM, K562). Similarly, the selectivity index (SI), indicating preferential cytotoxicity toward tumor cell lines, was calculated as SI = (mean IC50 of nontumor cell lines, BJ and MRC5)/(mean IC50 of cancer cell lines without resistant variants, CCRF-CEM, K562, HCT116, HCT116p53–/–, U2OS).

[1] = read-out: IC50 U2OS, MTS assay, 3-day incubation, mean ± SD
[2] = Homo sapiens, CCRF-CEM, 72 h, read-out: IC50 CCRF-CEM, MTS assay, 3-day incubation, mean ± SD of 3 experiments
[3] = MTS assay, 3-day incubation, mean ± SD
[4] = normal fibroblasts, MTS assay, 3-day incubation, mean ± SD

Compound	IC50 (HCT116p53–/–)	IC50 (K562)	IC50 (HCT116)	IC50 (CEM-DNR)	IC50 (K562-TAX)	IC50 (U2OS; [1])	RI (resistance index) (panel of cell lines)	SI (selectivity index) (panel of cell lines)	G0/G1 (CCRF-CEM lymphoblasts; 1×IC50, 24 h)	G2/M (CCRF-CEM lymphoblasts; 1×IC50, 24 h)	Polyploid cells (CCRF-CEM lymphoblasts; 1×IC50, 24 h)	S (CCRF-CEM lymphoblasts; 1×IC50, 24 h)	Mitosis (CCRF-CEM lymphoblasts; 1×IC50, 24 h)	Apoptosis (CCRF-CEM lymphoblasts; 1×IC50, 24 h)	G0/G1 (CCRF-CEM lymphoblasts; 5×IC50, 24 h)	Polyploid cells (CCRF-CEM lymphoblasts; 5×IC50, 24 h)	S (CCRF-CEM lymphoblasts; 5×IC50, 24 h)	Mitosis (CCRF-CEM lymphoblasts; 5×IC50, 24 h)	Apoptosis (CCRF-CEM lymphoblasts; 5×IC50, 24 h)	IC50 (MRC-5)	other results
COc1cc2c(c(OC)c1OC)-c1ccc(OC)c(=O)cc1[C@@H](NC(=O)CCCC[N+](C)(C)CCCCC1=C3C(C)=CC(C)=[N+]3[B-](F)(F)n3c(C)cc(C)c31)CC2 [CB3]	36.4 ± 5.03 µM	9.5 ± 2.37 µM	31.6 ± 4.54 µM	> 50 µM	40.1 ± 1.07 µM	> 50 µM	>4.79	>1.83	2.89%	79.08%	26.03%	18.03%	58.58%	16.41%	7.84%	26.25%	8.15%	57.12%	20.64%	> 50 µM	cytotoxic activity across the cell line panel (in words) (panel of cell lines): significantly lower; apoptosis in CCRF-CEM cells (CCRF-CEM lymphoblasts; 1× and 5 × IC50, compared with DMSO): 20%; G2/M (CCRF-CEM lymphoblasts; 5×IC50, 24 h): 84.01%; IC50 (HUVEC): > 50 µM; IC50 (CCRF-CEM; [2]): 9.33 ± 0.952 µM; IC50 (BJ): > 50 µM
COc1cc2c(c(OC)c1OC)-c1ccc(NCCCCC3=C4C(C)=CC(C)=[N+]4[B-](F)(F)n4c(C)cc(C)c43)c(=O)cc1[C@@H](NC(C)=O)CC2 [CB10]	> 50 µM	10.8 ± 0.431 µM	35.8 ± 5.91 µM	11.1 ± 0.959 µM	14.8 ± 2.94 µM	> 50 µM	1.45	>1.63	34.04%	26.65%	12.43%	39.32%	2.86%	3.87%	8.21%	25.51%	29.17%	36.02%	11.26%	> 50 µM	cytotoxic activity across the cell line panel (in words) (panel of cell lines): significantly lower; G2/M (CCRF-CEM lymphoblasts; 5×IC50, 24 h): 62.62%; IC50 (HUVEC): 32.3 ± 0.42 µM; IC50 (CCRF-CEM; [2]): 7.13 µM; IC50 (CCRF-CEM; read-out: IC50 CCRF-CEM, MTS assay, 3-day incubation, mean ± SD of 3 experiments): 7.11 ± 0.651 µM; IC50 (BJ): > 50 µM
CC1=CC(C)=[N+]2C1=C(CCCCCCCCCCC(=O)O)c1c(C)cc(C)n1[B-]2(F)F [B2]	–	–	–	–	–	–	–	–	–	–	–	–	–	–	–	–	–	–	–	–	IC50 (HCT116p53–/–; [3]): > 50 µM; IC50 (K562; [3]): > 50 µM; IC50 (HCT116; [3]): > 50 µM; IC50 (U2OS; MTS assay, 3-day incubation, mean ± SD, read-out: IC50 U2OS): > 50 µM; IC50 (MRC-5; [4]): > 50 µM; IC50 (CCRF-CEM; Homo sapiens, CCRF-CEM, 72 h, MTS assay, 3-day incubation, mean ± SD of 3 experiments, read-out: IC50 CCRF-CEM): > 50 µM; IC50 (BJ; [4]): > 50 µM; IC50 (A549): > 50 µM
COc1cc2c(c(OC)c1OC)-c1ccc(OC)c(=O)cc1[C@@H](NC(=O)CCCCCCCCCCC1=C3C(C)=CC(C)=[N+]3[B-](F)(F)n3c(C)cc(C)c31)CC2 [CB2]	> 50 µM	0.19 ± 0.04 µM	> 50 µM	1.45 ± 0.06 µM	0.58 ± 0.035 µM	> 50 µM	3.90	>1.66	6.59%	89.19%	23.67%	4.22%	45.60%	8.51%	5.2%	26.18%	1.29%	79.51%	13.84%	> 50 µM	cytotoxic activity across the cell line panel (in words) (panel of cell lines): selectively killed/affected suspension cell lines; IC50 (HUVEC): 0.36 ± 0.035 µM; IC50 (CCRF-CEM; [2]): 0.33 ± 0.005 µM; IC50 (BJ): > 50 µM
COc1cc2c(c(OC)c1OC)-c1ccc(OC)c(=O)cc1[C@@H](n1cc(CCCCCCCCC3=C4C(C)=CC(C)=[N+]4[B-](F)(F)n4c(C)cc(C)c43)[n+](C)n1)CC2 [CB8]	9.36 ± 0.87 µM	7.83 ± 0.892 µM	8.81 ± 1.94 µM	6.53 ± 0.458 µM	6.35 ± 0.335 µM	11.9 ± 1.11 µM	0.86	3.28	8.68%	80.01%	23.43%	11.31%	5.79%	11.09%	9.49%	20.18%	3.17%	13.33%	3.98%	22.1 ± 1.22 µM	G2/M (CCRF-CEM lymphoblasts; 5×IC50, 24 h): 87.34%; IC50 (HUVEC): 23.5 ± 1.29 µM; IC50 (CCRF-CEM; [2]): 7.11 ± 1.14 µM; IC50 (BJ): 36.9 ± 5.68 µM
COc1cc(C2=C3C(C)=CC(C)=[N+]3[B-](F)(F)n3c(C)cc(C)c32)ccc1OCc1cn([C@H]2CCc3cc(OC)c(OC)c(OC)c3-c3ccc(OC)c(=O)cc32)n[n+]1C [CB9]	8.56 ± 0.365 µM	7.69 ± 0.45 µM	8.27 ± 1.43 µM	6.49 ± 0.639 µM	5.78 ± 0.561 µM	> 50 µM	0.98	>3.15	12.83%	60.07%	29.32%	27.11%	32.84%	8.93%	19.56%	26.30%	31.53%	31.00%	14.27%	> 50 µM	G2/M (CCRF-CEM lymphoblasts; 5×IC50, 24 h): 48.91%; IC50 (HUVEC): 40.1 ± 2.93 µM; IC50 (CCRF-CEM; [2]): 4.81 ± 0.641 µM; IC50 (BJ): > 50 µM
